# “And” between values parts separate entries of the source, which are not always exact repeats. Equal entries are not always repeated. No end group written: not given here.
# Legend:
# [1] = incubation with human skin S9 protease; cited from earlier work
# [2] = system: mupirocin-resistant MRSA strains; set-up: method as in PMID 28581672; conditions: all mupirocin-resistant MRSA strains analyzed; cited from earlier work
# S. aureus ATCC 25923 = assay: Biofilm formation in peptide-coated PDMS channels under flow; type: cell-based, Staphylococcus aureus; conditions: peptide co-immobilized on pDa-coated PDMS channel, 24 h flow
# Experimental: (§1) Formation of the biofilm inside the PDMS flow chambers was performed using three peristaltic pumps working simultaneously (LP-pump, Kamush, Lipopharm, Poland) and sterile Tygon® 3350 silicone hoses (2.4 × 0.8 × 0.8 mm) with a length of 30 and 50 cm for inlet and outlet, respectively. Bacterial suspensions were prepared (0.5 × 10^7 CFU/mL) in sterile 50-mL test tubes, which were placed in a heating block at 37 °C. Before experiments, all channels were assessed for tightness and sterilized using a 70% 2-propanol solution (10 min, flow rate 1 mL/min) and rinsed with sterile PBS solution (10 min, flow 0.1 mL/min). The formation of biofilm inside the channels was divided into three stages: (1) adhesion—at this stage S. aureus suspensions were passed through the channels for 4 h at a flow rate of 0.1 mL/min; (2) rinsing—the previously used hoses were replaced with new sterile ones, and the channels were rinsed with sterile PBS solution for 10 min at a flow rate of 0.1 mL/min; (3) biofilm growth—after flushing the channels, the silicone hoses were placed in tubes with MHB medium, which was passed through the channels for 24 h at a flow rate of 0.1 mL/min. All experiments included growth and sterility controls.
# (§2) Incorporation of omiganan and retro-omiganan into PDMS channels was conducted using a polydopamine (pDa) coating, as previously described with a slight modification resulting from flow-based experimental model. To do this, the pDa coating was done by rinsing the channels with a solution of dopamine hydrochloride (Sigma-Aldrich, 2 mg/mL) in 10 mM bicin buffer (pH 8.5) for 18 h, 0.3 mL/min in a closed system (Fig. 3A). Then, the channels were rinsed with a sterile solution of demineralized water. Further co-immobilization was conducted using new, sterile silicone hoses connected to flow chambers and test tubes containing aqueous solutions of the peptides (100 µg/mL) pumped through the channels in a closed system for 6 h at 0.3 mL/min (Fig. 3B). Assessment of peptide binding was performed using liquid chromatography (RP-HPLC), by comparing the content of the compounds in the solution before and after incorporation. Waters Alliance e2695 system with a Waters 2998 PDA Detector (software-Empower 3, Waters, Milford, MA, USA) was used. All analyses were carried out on a Waters X-Bridge Shield RP-18 column (3.0 × 100 mm, 3.5 μm particle size, 130 Å pore size) with UV detection at 214 nm and samples (10 μL) were eluted with a linear 10–90% acetonitrile gradient in deionized water over 15 min at 25.0 ± 0.1 °C. The mobile phase flow rate was 0.5 mL/min. Both eluents contained 0.1% (v/v) of TFA. Each peptide sample was analyzed in triplicate. Such functionalized PDMS channels were used for further studies on biofilm formation. […]
# [3] = system: S. aureus ATCC 33591 (MRSA); assay: as above; type: cell-based, Staphylococcus aureus; conditions: peptide co-immobilized on pDa-coated PDMS channel, 24 h flow
# Experimental: as §1, §2
Substance,half-life [1],MIC [2],reduction of bacteria forming biofilm relative to control (S. aureus ATCC 25923) [%],reduction of bacteria forming biofilm relative to control [3] [%]
ILRWPWWPWRRK-NH2 [Omiganan],ca. 10 min,12.5 µM and 22.7 µg/mL,71,98
KRRWPWWPWRLI-NH2 [Retro-Omiganan],–,–,81,96

# Reference: article PMC12055641, “The Study of Antistaphylococcal Potential of Omiganan and Retro-Omiganan Under Flow Conditions” (Probiotics and Antimicrobial Proteins, 2024)
